The source of these data is patent US20070117182A1, “Nucleic acids conferring transcriptional responsiveness on the RANKL gene promoter and uses thereof” (Wisconsin Alumni Research Foundation, priority 2005, published 2007).

Test [1] concerns Cyp24 promoter. Briefly: ChIP of VDR/RXR at Cyp24 promoter in ST2 cells. To be noted: 10^-7 M, 6 hours. Type of test: cell-based, mouse. The method, then:
FIG. 3. ChIP/chip analysis of the RANKL gene locus. A) ChIP: ST2 cells were treated with either vehicle or 1,25(OH)2D3 (10^−7 M) and after 6 hours subjected to ChIP using antibodies to VDR, RXR and IgG. Precipitated DNA was analyzed for the presence of either the Cyp24 or the OPN promoter. B) Arrangement of the mouse RANKL gene locus and position of flanking genes. RANKL gene is transcribed on the reverse strand (right to left). C) DNA chip: Precipitated DNA was linearly amplified and then subjected to chip analysis using tiled oligonucleotide arrays containing 50-mers spanning the RANKL gene locus as described in the text. Hybridization data derived from the arrays are indicated in log2 scale across the locus with nucleotide positions on chromosome 14 indicated on the X axis. The first set of two arrays provide linear data comparing IgG (±1,25(OH)2D3) and VDR (±1,25(OH)2D3) over the RANKL upstream regions. The second set of three arrays provides an expanded view of hybridization data comparing VDR (±1,25(OH)2D3), VDR (+1,25(OH)2D3 vs input DNA) and RXR (+1,25(OH)2D3 vs input DNA). VDR/RXR binding regions D1-D5 are tracked by the shading.
As a first step, the inventors treated ST2 cells with either vehicle or 1,25(OH)2D3 for 6 hours, fixed the cells with formalin, and then subjected the cell lysates to ChIP analysis using antibodies to VDR, RXR, and an IgG control. […]

Test [2] concerns D1-D4 regions of the RANKL gene. The test can be described thus: pTK-RL(D1)-(D4) luciferase reporters in ST2 cells. The format is cell-based, mouse. The method, then:
FIG. 12. Transcriptional activities of the D1-D4 regions of the RANKL gene in the context of the TK promoter were analyzed and corresponding data is shown in FIG. 12. The D1-D4 regions of the RANKL gene were cloned into the pTK vector and termed PTK-RL(D1)-(D4). […] Cells were harvested after 24 hours and luciferase activity assessed. Luciferase was normalized using beta-gal activity. Data in FIG. 12 represent the mean of triplicate determinations (SEM).
The activity of an enhancer must be evaluated in the context of its local environment, preferentially in the context of both other enhancers and its native promoter. In the case of the RANKL gene, however, this is clearly not possible due to the numbers and the distant locations of the potential regulatory regions. […] To ensure that the viral TK promoter background was not contributing to our evaluation, the inventors cloned the mouse RANKL promoter (−100 to +65) into pGL3, inserted RL D5 and evaluated its activity in ST2 cells as well.
Transcriptional activities of the D1-D4 regions of the RANKL gene in the context of the TK promoter were analyzed and corresponding data is shown in FIG. 12. […] Cells were harvested after 24 hours and luciferase activity assessed. […]
A general note: In a reporter assay the amount or activity of a reporter protein is the signal.

Test [3] concerns Cyp24. Briefly: RT-PCR of Cyp24 control gene in treated ST2 cells. The format is cell-based, mouse. To be noted: up to 24 hours. The method, then:
(§1) FIG. 2. Induction of RANKL in ST2 cells by hormones and cytokines. ST2 cells were treated with the agents indicated for periods up to 24 hours. Total RNA was isolated and subjected to RT-PCR using a primer set to mouse RANKL and beta-actin. Positive vitamin D target control genes include Cyp24 and osteopontin (OPN).
(§2) The inventors first established a model in which RANKL is both induced in response to 1,25(OH)2D3, PTH (forskolin) and oncostatin M (OSM), and is capable of supporting osteoclast formation when co-cultured with bone marrow monocyte- or spleen cell-derived osteoclast precursors. While a number of cell types express RANKL and induce osteoclastogenesis, the historical literature strongly supports mouse ST2 cells in this capacity, prompting the inventors to focus on this stromal/preosteoblastic line for initial studies. […] Each of these components is known to both induce RANKL expression and promote osteoclast formation as well. […] Indeed, GC effects are widely observed. […] The ability of GCs to enhance osteoclast formation in coculture assays in the presence of 1,25(OH)2D3, however, is likely due also to its coordinate ability to suppress OPG.

For test [4], the system named is RANKL. The test can be described thus: RT-PCR of RANKL in MG-63 cells. The format is cell-based, human. Here is the method:
FIG. 14. […] Cells were treated with the indicated inducers for the periods identified and isolated RNA subjected to PCR analysis for Cyp24, RANKL and b-actin. B) 1,25(OH)2D3 induces VDR binding to the conserved D5 region of the human RANKL gene in MG-63 cells. […] Two different primer sets to the human D5 region were used to assess VDR binding. VDR binding was also observed at D3-D1 but not in intervening regions or at the TSS. C) The human D5 region is transcriptionally active in MG-63 cells. […] Luciferase activity was analysed 24 hours later. […] Data are the average of triplicate determinations, SEM.
The isolated RNA was then subjected to RT-PCR analysis using primers to a control gene (β-actin), a known vitamin D induced gene (Cyp24) and RANKL. […] These and additional data using other hormonal regulators are identical to that observed in mouse cells and it therefore appears likely that human RANKL is regulated in a fashion similar to that in mouse.

In test [5] the test system is RANKL. Briefly: RT-PCR of RANKL transcripts in treated ST2 cells. Type of test: cell-based, mouse. To be noted: treated up to 24 hours, agent alone, vs beta-actin controls. Here is the method: as §1, §2

`C=C1/C(=C\C=C2/CCC[C@]3(C)[C@@H]([C@H](C)CCCC(C)(C)O)CC[C@@H]23)C[C@@H](O)C[C@@H]1O` [1,25(OH)2D3]: the “abundance of Cyp24 promoter DNA precipitated with VDR and RXR antibodies” value in test [1] was “clearly increased the abundance of DNA”. The “luciferase activity of regions D1 through D4” value in test [2] (increasing concentrations, no added VDR) is on record as “failed to show increased activity”. In addition, the “response from D2 and D3” value in test [2] (with exogenous VDR expression vector) is “modest response”. Further, in test [3], the Cyp24 induction result is recorded as “induced in a time-dependent manner”. Also, in test [4], the “RANKL expression (RT-PCR)” value is reported as “upregulated”. Further, in test [5], the RANKL transcripts result is “substantial time-dependent increase”.
